The target of assay [1] is T1, OR6A2 (Homo sapiens, UniProt O95222).
T1 construct: OR6A2 protein surface expression in hMDMs was confirmed by flow cytometry; endogenous in cells; host or cells: human monocyte-derived macrophages from healthy donors (rhM-CSF, 7 d)
T1 sequence (O95222 1-327): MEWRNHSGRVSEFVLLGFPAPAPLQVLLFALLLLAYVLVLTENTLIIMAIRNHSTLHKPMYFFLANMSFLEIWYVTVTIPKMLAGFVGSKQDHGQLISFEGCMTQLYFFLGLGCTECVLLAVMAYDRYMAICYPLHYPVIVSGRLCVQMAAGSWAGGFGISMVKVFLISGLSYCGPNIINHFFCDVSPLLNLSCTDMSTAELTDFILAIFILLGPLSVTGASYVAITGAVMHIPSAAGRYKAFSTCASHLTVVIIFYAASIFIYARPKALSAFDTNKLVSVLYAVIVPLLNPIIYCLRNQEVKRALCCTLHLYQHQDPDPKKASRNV
The assay is described as follows: IL-1β production in LPS-primed human MDMs. Format: cell-based. The procedure: Mouse BMDMs and human MDMs were pretreated with LPS (50 ng/mL) or left untreated for 18 h at 37° C. and 5% CO2. After this period LPS pretreated and untreated cells were further incubated with Oct (10 μM) and Cit (100 μM) alone (LPS+Oct; LPS+Cit; Oct; Cit, respectively) or combined (LPS+Oct+Cit) for further 8 h. Supernatants were collected by centrifugation at 2000 g for 15 minutes at 4° C., collected and frozen at −80° C. until further IL-1β analysis by CBA (BD Biosciences).
(§1) Supernatants of stimulated cells and aortic tissue were analyzed by BD CBA Flex Sets (BD Biosciences) for mouse TNFα, CCL2, CCL4, IL-1β, or human TNF, IL6, and IL-1β according to the manufacturer's protocol. Samples were analyzed with LSR-II (BD Biosciences). Data was acquired with FACSDiva software (BD Biosciences) and analyzed with FCAP array software 3.0 (BD Biosciences).

Assay [2] relates to Olfr2. As to the kind of experiment: Olfr2, Rtp1 and Rtp2 mRNA expression (qPCR) in explanted aortas. The class given is cell-based, mouse. From the text: Next, Olfr2 expression in aortas harvested from western-type diet (WD)-fed male mice (n=5) was investigated^18. Briefly, whole aortas were harvested from Apoe^−/− mice fed western-like diet (WD) for 2 weeks and treated as described above. Relative expression of Olfr2 quantified by real time PCR analysis of Olfr2 expression normalized to expression of Gapdh and untreated control.
In addition, Rtp1 and Rtp2 expression in aortas harvested from Apoe−/− mice was investigated. Briefly, explanted aortas of Apoe−/− mice treated for 12h with Oct (10 μM) and/or lipopolysaccharide (LPS, 500 ng/mL). Rtp1 and Rtp2 expression was assessed by qPCR as described above. N=3 independent experiments (relative expression calculated by 2^−ΔΔCt method). Data are presented as means±SEM. *p<0.05, **p<0.01, ***p<0.005, ****p<0.001. p calculated by One-Way ANOVA test, Tukey's multiple comparisons test.
(§2) BMDMs and hMDMs were incubated in culture media for 12 h at 37° C. and 5% CO2 with Oct, (10 μM), LPS (500 ng/mL) alone or combined with Oct (LPS+Oct) and DMSO (0.1%) as a control and lysed with Qiazol (500 μL; Qiagen) Similarly, whole aortas incubated as previously described were transferred into Qiazol (500 μl; Qiagen) and digested with gentleMACS™ Dissociator (Miltenyi).
Total RNA was quantified using a nanodrop spectrophotometer (Peqlab) and 500 ng were reverse transcribed into cDNA using Omniscript reverse transcriptase (Qiagen). Real time PCR reactions were performed according to the RT^2 SYBR green gene expression assay protocol (Qiagen). RT2 SYBR Green qPCR master mix and premade RT^2 qPCR Primer Assays for mouse Olfr2, Rtp1, Rtp2, Ccl2, Ccl4, Tnf, Nos2 and Gapdh were used. Similarly, real time PCR analysis of hMDMs samples was performed following the RT^2 SYBR green gene expression assay protocol (Qiagen), applying RT^2 SYBR Green qPCR master mix and premade RT^2 qPCR Primer Assays for human OR6A2, TNF, IL-6, NOS2 and GAPDH. The results were calculated applying the 2^−ΔΔCT method^32 using Gapdh/GAPDH as housekeeping gene.

The target in assay [3] is T2, Olfr2 (Mus musculus, UniProt Q9QWU6).
T2 sequence (Q9QWU6 1-327): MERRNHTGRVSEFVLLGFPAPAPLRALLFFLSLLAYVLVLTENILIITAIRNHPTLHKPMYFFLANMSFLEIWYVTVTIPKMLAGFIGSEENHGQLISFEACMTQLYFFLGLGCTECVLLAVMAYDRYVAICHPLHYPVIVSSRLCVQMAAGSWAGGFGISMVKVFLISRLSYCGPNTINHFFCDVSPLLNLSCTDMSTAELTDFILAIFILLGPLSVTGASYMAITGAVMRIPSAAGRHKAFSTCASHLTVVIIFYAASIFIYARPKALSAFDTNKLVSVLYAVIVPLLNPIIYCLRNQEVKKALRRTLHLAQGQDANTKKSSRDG
The note with it: Olfr2 binding of medium-chain aliphatic aldehydes; cited from earlier work.

The target in assay [4] is T1, OR6A2. As to the kind of experiment: Pro-inflammatory gene expression and cytokine secretion in hMDMs. The class given is cell-based. The note with it: 12 h. The procedure:
Peripheral blood mononuclear cells (PBMCs) were isolated from EDTA-venous blood of informed healthy donors (25-50 years old) from La Jolla Institute for Immunology's in-house Normal Blood Donor Program (NBDP), using a Ficoll-Paque (GE Healthcare) standard separation protocol. Human monocytes were enriched from PBMCs by the EasySep™ Human Monocyte Isolation Kit (StemCell) according to the manufacturer's instructions. Enriched monocytes were incubated with culture medium supplemented with 50 ng/ml rhM-CSF at 37° C. and 5% CO2 for 7 days. Differentiated macrophages at day 7 were used for further studies.
as §2
Total RNA was quantified using a nanodrop spectrophotometer (Peqlab) and 500 ng were reverse transcribed into cDNA using Omniscript reverse transcriptase (Qiagen). Real time PCR reactions were performed according to the RT^2 SYBR green gene expression assay protocol (Qiagen). RT2 SYBR Green qPCR master mix and premade RT^2 qPCR Primer Assays for mouse Olfr2, Rtp1, Rtp2, Ccl2, Ccl4, Tnf, Nos2 and Gapdh were used. […] The results were calculated applying the 2^−ΔΔCT method^32 using Gapdh/GAPDH as housekeeping gene.
as §1

On to `CC(C)=CCCC(C)=CC=O` [citral], for which, on OR6A2 [1] (LPS, octanal + citral), the “octanal-induced IL-1β in the supernatant, hMDMs” value is “partially but significantly inhibited”. For the same compound, the “Olfr2 mRNA expression” value in the assay on Olfr2 [2] (citral, data not shown) is “did not affect”.

On to `CCCCCCCC=O` [octanal], for which the “IL-1β in the supernatant, hMDMs” value on OR6A2 [1] (LPS 50 ng/mL 18 h, then octanal) was “highly significant increase”. For the same compound, the EC50 (commonly the midpoint of the concentration-response curve) at Olfr2 [3] is roughly 10 µM. Besides, the “aortic Olfr2, Rtp1 and Rtp2 mRNA” value in the assay on Olfr2 [2] (LPS 500 ng/mL + octanal 10 μM ex vivo, 12 h) is recorded as “significantly enhanced”. Moreover, the “Olfr2 expression (qRT-PCR)” value in the assay with Olfr2 [2] (LPS + octanal) is “further increased”; in the assay on Olfr2 [2] (octanal alone), “no effect”. The “LPS-induced expression of TNF, IL6 and NOS2 in hMDMs” value at OR6A2 [4] (LPS 500 ng/mL + octanal 10 μM) is listed as “enhanced the LPS-induced expression”. Further, the “secretion of inflammatory molecules (IL6, TNF) in hMDM supernatant” value at OR6A2 [4] (LPS + octanal, cytokine bead array) is “enhanced”. Further, the “mRNA expression of TNF, IL6 and NOS2 in hMDMs” value on OR6A2 [4] (octanal 10 μM) is “induced mRNA expression”.

(Values after patent publication US20210145768A1, “MODULATING IMMUNE RESPONSE VIA TARGETING OF OLFACTORY RECEPTOR ACTIVITY” (La Jolla Institute for Allergy and Immunology, priority 2018, published 2021).)
